Like-named read-outs stand apart in the source and are kept apart here.
Tests used:
[1] = Percutaneous administration to anesthetized rats (glass cell on abdominal skin), plasma concentration by HPLC and residual drug recovery; assay type: in vivo, rat (Jcl SD strain); conditions: for MRT / AUC / Cmax / Tmax: Jcl SD, rat, plasma, topical or ocular, N=3
Experimental: (I) A base was composed of 2.5% 1-menthol/20% ethanol/77.5% distilled water. The phosphate salt of Compound (I-1) as an active ingredient was dissolved or dispersed in it at concentrations of 1.4, 5.6, and 11.2 mg/mL. (II) To Non-fasting rats (Jcl SD strain rat, 9-10 weeks old) was injected 20% urethane solution subcutaneously (0.65 mL/100 g BW). After the anesthetic condition of the rat became stable, abdominal hair was removed using a hair clipper and shaver, then the rats were kept on a hotplate at 36° C. A glass cell (35 mm I.D. with a ground stopper) was attached using Aron alpha (trademark) in an abdominal region of the rat and absorbent gauze (about two sheets) was placed in the cell, then 0.5 mL of the above obtained pharmaceutical preparations of the invention was administrated to the cell (2, 8 or 16 mg/kg, N=3). (III) The time of blood collection: 0, 1, 2, 3, 4, 6, and 8 hr after the administration (IV) After the blood collection at 8 hrs, the residual drug in pharmaceutical preparations of the present invention in the cell was recovered by the addition of 50 mL of methanol. The percent of apparent absorption was calculated by the difference between the initial dose and the recovered amount at 8 hrs. AUC and MRT were calculated from plasma concentration profiles measured by HPLC. Furthermore, the skin to which the applied pharmaceutical preparations were applied and their subcutaneous part were removed and macroscopically checked after the experiments. A phosphate buffer of pH 9 was prepared from 1/15 mole of dibasic sodium phosphate dissolved in […] of distilled water. The phosphate buffers of pH 4 and pH 7 were prepared by the addition of phosphoric acid to the pH 9 buffer. A bBase was composed of 3% 1-menthol/30% ethanol/67% phosphate buffer. The phosphate salt of Compound (I-1) as an active ingredient was dissolved or dispersed in the base at a concentration of 5.6 mg/mL. Other conditions were the same as that of Experiment 1 (N=3). Results are represented in Table 2 and FIG. 2. The phosphate salt of Compound (I-1) as an active ingredient was dissolved or dispersed in bases in Table 3 at a concentration of 5.6 mg/mL. Other condition were the same as that of the Experiment 1. The 3% 1-menthol/30% ethanol/67% pH 4 phosphate buffer was selected as an aqueous base. The 2.5% 1-menthol/20% ethanol/77.5% isopropyl myristate was selected as an oily base. The phosphate salt of Compound (I-1) as an active ingredient was dissolved or dispersed in the aqueous or oily formulation at a concentration of 5.6 mg/mL. Other conditions were the same as that of Experiment 1 (N=3).

[2] = Percutaneous administration by strapping technique to conscious rats (rayon cloth on abdominal region), plasma concentration by HPLC; assay type: in vivo, rat (Jcl Wistar strain male); conditions: for BA: absolute bioavailability, AUC percutaneous divided by AUC intravenous; for Percent of apparent absorption: residual drug in rayon cloth recovered at 24 hr; for Cmax / Tmax / AUC(0-t): male, Jcl Wistar, rat, plasma, topical or ocular, conscious rats; for Cmax: aqueous base 3% 1-menthol/30% ethanol/67% pH 4 phosphate buffer, 5.6 mg/mL; for Tmax / AUC(0-t): aqueous base pH 4, 5.6 mg/mL; for AUC(0-t): read-out: AUC 0-360 min (converted)
Experimental: The experiment was performed by the strapping technique under the conscious condition. Non-fasting rats (Jcl Wistar strain male rat 9-11 W) were cannulated in the jugular vein two days before the percutaneous administration experiment. On the day of experiment, abdominal region hair of rats were removed using a hair clipper and shaver under ether anesthesia. Three different volumes (0.125, 0.25, and 0.5 mL) of the aqueous basic formulation (3% 1-menthol/30% ethanol/67% pH 4 phosphate buffer) containing 5.6 mg/mL of Compound (I-1) were administered (2, 4, and 8 mg/kg) on the rayon cloths, which area were 2.5, 5, and 10 cm^2, respectively, supported by tape on the abdominal region then covered with gum tape. Blood samples were collected from the jugular vein of the rats in a cage, at the time of 0, 0.5, 1, 2, 3, 4, 6, 8, and 10 hr. Plasma concentrations were measured by HPLC. The rayon cloths were recovered at 24 hr after the administration and the residual drug was extracted by 30 mL of methanol in a 50 mL centrifuge tube and measured its concentration by HPLC. The percent of apparent absorption was calculated and the absolute bioavailability was calculated from the AUC of percutaneous administration divided by the AUC of intravenous administration.

[3] = tested on: skin; experiment: Macroscopic check of the applied skin and subcutaneous part after the experiment (irritation); assay type: in vivo, rat (Jcl SD strain)
Experimental: (IV) After the blood collection at 8 hrs, the residual drug in pharmaceutical preparations of the present invention in the cell was recovered by the addition of 50 mL of methanol. The percent of apparent absorption was calculated by the difference between the initial dose and the recovered amount at 8 hrs. AUC and MRT were calculated from plasma concentration profiles measured by HPLC. Furthermore, the skin to which the applied pharmaceutical preparations were applied and their subcutaneous part were removed and macroscopically checked after the experiments.

[4] = tested on: acetylcholine release; experiment: Acetylcholine release in frontal cortex dialysate (microdialysis) after percutaneous administration; assay type: in vivo, rat (Jcl Wistar strain male); conditions: 2, 4 and 8 mg/kg percutaneous, aqueous basic formulation 5.6 mg/mL; values only in FIG. 5 and 6
Experimental: The day before experiment, a dialysis probe of 2 mm membrane length was inserted into frontal cortex of non-fasting rats (Jcl Wistar strain male rat 9-11 W). On the day of experiment, abdominal region hair was removed using a hair clipper and shaver under 2% halothane anesthesia. The aqueous basic formulation containing 5.6 mg/mL of Compound (I-1) was administered at a volume of 0.125, 0.25 and 0.5 mL to the rayon cloths which area were 2.5, 5, and 10 cm^2, respectively (Dose: 2, 4 and 8 mg/kg). Then the rayon cloths were placed on the abdominal region by support tape and covered with gum tape. After the administration, acetylcholine concentration in dialysate was measured every 30 min. FIG. 5 indicates a time-course of acetylcholine release after the administration of Compound (I-1). The plot data express the percent of control and the control level was monitored before the administration of Compound (I-1) in the same rat. The AUC values were calculated for 4 hrs of acetylcholine release as the percent of control in FIG. 6.

[5] = 8 mg/kg, pH 4, aqueous base 3% 1-menthol/30% ethanol/67% pH 4 phosphate buffer, phosphate salt 5.6 mg/mL
[6] = 8 mg/kg, pH 4, base pH 4: 3% 1-menthol/30% ethanol/67% phosphate buffer, phosphate salt 5.6 mg/mL
[7] = 8 mg/kg, pH 7, base pH 7: 3% 1-menthol/30% ethanol/67% phosphate buffer, phosphate salt 5.6 mg/mL
[8] = 8 mg/kg, aqueous base 3% 1-menthol/30% ethanol/67% pH 4 phosphate buffer, phosphate salt 5.6 mg/mL
[9] = 8 mg/kg, oily base 2.5% 1-menthol/20% ethanol/77.5% isopropyl myristate, phosphate salt 5.6 mg/mL

- Percent of apparent absorption ([1]; 2 mg/kg percutaneous, phosphate salt in 2.5% 1-menthol/20% ethanol/77.5% distilled water, initial dose minus recovered amount at 8 hrs): 71.3%
- Percent of apparent absorption ([1]; 8 mg/kg percutaneous, phosphate salt in 2.5% 1-menthol/20% ethanol/77.5% distilled water, initial dose minus recovered amount at 8 hrs): 81.0%
- Percent of apparent absorption ([1]; 16 mg/kg percutaneous, phosphate salt in 2.5% 1-menthol/20% ethanol/77.5% distilled water, initial dose minus recovered amount at 8 hrs): 35.8%
- MRT ([1]; 2 mg/kg, 2 mg/kg percutaneous, phosphate salt 1.4 mg/mL in 2.5% 1-menthol/20% ethanol/77.5% distilled water): 3.4 ± 0.6 h
- AUC ([1]; 2 mg/kg, 2 mg/kg percutaneous, phosphate salt 1.4 mg/mL in 2.5% 1-menthol/20% ethanol/77.5% distilled water, blood to 8 hr): 490 ± 500 ng·h/mL
- MRT ([1]; 8 mg/kg, 8 mg/kg percutaneous, phosphate salt 5.6 mg/mL in 2.5% 1-menthol/20% ethanol/77.5% distilled water): 3.6 ± 0.2 h
- AUC ([1]; 8 mg/kg, 8 mg/kg percutaneous, phosphate salt 5.6 mg/mL in 2.5% 1-menthol/20% ethanol/77.5% distilled water, blood to 8 hr): 720 ± 50 ng·h/mL
- AUC [1, 5]: 1610 ± 300 ng·h/mL
- MRT [1, 5]: 2.2 ± 0.5 h
- AUC [1, 6]: 1810 ± 300 ng·h/mL
- MRT [1, 6]: 3 ± 0.2 h
- AUC [1, 7]: 380 ± 180 ng·h/mL
- MRT [1, 7]: 3.4 ± 0.3 h
- Cmax [1, 8]: 690 ± 130 ng/mL
- Tmax [1, 8]: 1.3 ± 0.6 h
- AUC [1, 9]: 470 ± 100 ng·h/mL
- Cmax [1, 9]: 160 ± 10 ng/mL
- MRT [1, 9]: 2.6 ± 0.6 h
- Tmax [1, 9]: 1 h
- MRT ([1]; 16 mg/kg, 16 mg/kg percutaneous, phosphate salt 11.2 mg/mL in 2.5% 1-menthol/20% ethanol/77.5% distilled water): 4 ± 0.7 h
- AUC ([1]; 16 mg/kg, 16 mg/kg percutaneous, phosphate salt 11.2 mg/mL in 2.5% 1-menthol/20% ethanol/77.5% distilled water, blood to 8 hr): 460 ± 180 ng·h/mL
- Percent of apparent absorption ([1]; base 2.5% I-menthol, 20% ethanol, 77.5% isopropyl myristate, phosphate salt 5.6 mg/mL): 28.1%
- Percent of apparent absorption ([1]; base pH 4: 3% 1-menthol/30% ethanol/67% phosphate buffer, phosphate salt 5.6 mg/mL): 66.8%
- Percent of apparent absorption ([1]; base pH 7: 3% 1-menthol/30% ethanol/67% phosphate buffer, phosphate salt 5.6 mg/mL): 22.6%
- Percent of apparent absorption ([1]; reference example base 5% N-methyl pyrrolidone, 5% ethanol, 90% isopropyl myristate, phosphate salt 5.6 mg/mL): 17.4%
- Percent of apparent absorption ([1]; reference example base 5% ethanol, 95% isopropyl myristate, phosphate salt 5.6 mg/mL): 13.0%
- Percent of apparent absorption ([1]; reference example base 5% lactic acid, 5% ethanol, 90% isopropyl myristate, phosphate salt 5.6 mg/mL): 11.9%
- concentrations of Compound (I-1) in all plasma samples ([1]; reference example bases of Table 3, under the limit of detection): < 50 ng/mL
- BA ([2]; 2 mg/kg percutaneous): 30.92 ± 2.59%
- Percent of apparent absorption ([2]; 2 mg/kg percutaneous): 63.9%
- BA ([2]; 4 mg/kg percutaneous): 17.86 ± 6.40%
- Percent of apparent absorption ([2]; 4 mg/kg percutaneous): 52.8%
- BA ([2]; 8 mg/kg percutaneous): 22.68 ± 9.47%
- Percent of apparent absorption ([2]; 8 mg/kg percutaneous): 60.0%
- Cmax ([2]; 2 mg/kg percutaneous (0.125 mL, 2.5 cm^2)): 140 ± 30 ng/mL
- Tmax ([2]; 2 mg/kg percutaneous): 1.25 h
- AUC(0-t) ([2]; 2 mg/kg percutaneous): 375 ng·h/mL
- Cmax ([2]; 4 mg/kg percutaneous (0.25 mL, 5 cm^2)): 170 ± 60 ng/mL
- Tmax ([2]; 4 mg/kg percutaneous): 1.55 h
- AUC(0-t) ([2]; 4 mg/kg percutaneous): 408 ng·h/mL
- Cmax ([2]; 8 mg/kg percutaneous (0.5 mL, 10 cm^2)): 450 ± 150 ng/mL
- Tmax ([2]; 8 mg/kg percutaneous): 0.85 h
- AUC(0-t) ([2]; 8 mg/kg percutaneous): 1000 ng·h/mL
Structure (SMILES): c1cc(-c2nc3c4c(ncc3[nH]2)CCOC4)no1 [Compound (I-1), 2-(3-isoxazolyl)-3,6,7,9-tetrahydroimidazo[4,5-d]pyrano[4,3-b]pyridine]
- skin irritation (macroscopic check) ([3]; Experiment 1: all doses (2, 8, 16 mg/kg), 2.5% 1-menthol/20% ethanol/77.5% distilled water base): No irritations
- skin irritation (macroscopic check) ([3]; Experiment 2: all formulations (pH 4 and pH 7 phosphate buffer bases), 5.6 mg/mL): No irritations
- acetylcholine release in frontal cortex dialysate (percent of control, time-course and AUC for 4 hrs) [4]: prolonged pharmacological effect
